From article PMC6576746, “Rational discovery of dual-indication multi-target PDE/Kinase inhibitor for precision anti-cancer therapy using structural systems pharmacology” (PLoS Computational Biology, 2019)

How the values were obtained:
Experiment in all cases: cells
Parameters in all cases: species or system panel of human cancer cell lines; Eurofins OncoPanel proliferation; nuclei count by high-content fluorescence imaging, 10-point dose response
BT-549 = conditions: Homo sapiens, BT-549, 72 h, cell count, 3 days
Summary of the method: (§1)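 Ten half-log concentrations from 100 μM (0.1% DMSO max) applied one day post-seeding, 3-day exposure at 37°C; untreated time-zero plate for GI50. Readout is nuclear cell count by automated fluorescence imaging, giving EC50, IC50, GI50 and 0–10 activity area.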

CML-T1 = conditions: CML-T1, 72 h, cell count, 3 days
Summary of the method: as §1

DK-MG = conditions: 72 h, cell count, 3 days
Summary of the method: as §1

U266B1 = conditions: 72 h, cell count, 3 days
Summary of the method: as §1

SaOS2 = conditions: Homo sapiens, SAOS-2, 72 h, cell count, 3 days
Summary of the method: as §1

Hs 683 = conditions: Homo sapiens, Hs 683, 72 h, cell count, 3 days
Summary of the method: as §1

Hs 695T = conditions: Homo sapiens, Hs 695T, 72 h, cell count, 3 days
Summary of the method: as §1

DB = conditions: Homo sapiens, DB, 72 h, cell count, 3 days
Summary of the method: as §1

RKOE6 = conditions: Homo sapiens, RKOE6, 72 h, cell count, 3 days
Summary of the method: as §1

NTERA-2 cl.D1 = conditions: Homo sapiens, NTERA-2-cl-D1, 72 h, cell count, 3 days
Summary of the method: as §1

U2OS = conditions: Homo sapiens, U2OS, 72 h, cell count, 3 days
Summary of the method: as §1

HCT-116 = conditions: Homo sapiens, HCT-116, 72 h, cell count, 3 days
Summary of the method: as §1

ChaGoK1 = conditions: Homo sapiens, ChaGo-K-1, 72 h, cell count, 3 days
Summary of the method: as §1

HCT-15 = conditions: Homo sapiens, HCT-15, 72 h, cell count, 3 days
Summary of the method: as §1

[1] = 50% of maximum possible response

C[C@@H]1CC(=O)NN=C1c1ccc(NN=C(C#N)C#N)cc1 [levosimendan]
IC50 (BT-549; [1]): 15.4 µM
GI50 (BT-549; corrected for time zero): 11.3 µM
EC50 (BT-549; curve inflection point): 12.7 µM
IC50 (CML-T1; [1]): 15.7 µM
GI50 (CML-T1; corrected for time zero): 12.5 µM
EC50 (CML-T1; curve inflection point): 15.7 µM
IC50 (DK-MG; [1]): > 100 µM
GI50 (DK-MG; corrected for time zero): 49.4 µM
EC50 (DK-MG; curve inflection point): > 100 µM
IC50 (U266B1; [1]): 95.7 µM
GI50 (U266B1; corrected for time zero): 46.2 µM
EC50 (U266B1; curve inflection point): 95.7 µM
IC50 (SaOS2; [1]): 54.5 µM
GI50 (SaOS2; corrected for time zero): 35.7 µM
EC50 (SaOS2; curve inflection point): 54.5 µM
IC50 (Hs 683; [1]): > 100 µM
GI50 (Hs 683; corrected for time zero): > 100 µM
EC50 (Hs 683; curve inflection point): 51.2 µM
IC50 (Hs 695T; [1]): 44.9 µM
GI50 (Hs 695T; corrected for time zero): 15.2 µM
EC50 (Hs 695T; curve inflection point): 26.7 µM
IC50 (DB; [1]): 17.6 µM
GI50 (DB; corrected for time zero): 14.5 µM
EC50 (DB; curve inflection point): 17.6 µM
IC50 (RKOE6; [1]): 7.12 µM
GI50 (RKOE6; corrected for time zero): 6.28 µM
EC50 (RKOE6; curve inflection point): 6.96 µM
IC50 (NTERA-2 cl.D1; [1]): 11.8 µM
GI50 (NTERA-2 cl.D1; corrected for time zero): 9.76 µM
EC50 (NTERA-2 cl.D1; curve inflection point): 11.6 µM
IC50 (U2OS; [1]): 8.58 µM
GI50 (U2OS; corrected for time zero): 6.64 µM
EC50 (U2OS; curve inflection point): 7.6 µM
IC50 (HCT-116; [1]): 8.39 µM
GI50 (HCT-116; corrected for time zero): 8.1 µM
EC50 (HCT-116; curve inflection point): 8.01 µM
IC50 (ChaGoK1; [1]): 84.9 µM
GI50 (ChaGoK1; corrected for time zero): 57.2 µM
EC50 (ChaGoK1; curve inflection point): 84.9 µM
IC50 (HCT-15; [1]): 32.1 µM
GI50 (HCT-15; corrected for time zero): 31 µM
EC50 (HCT-15; curve inflection point): 30.8 µM
